Reference: ChEMBL document CHEMBL1201862, “PubChem BioAssay data set” (2004)
Activity calls are given as the source filed them.

What was measured:
cells [1] = format: functional, cell-based
cells [2] = format: functional, cell-based; remark: listed apart in the source
[3] = biological target: T1, RNA-binding protein pos-1 (Caenorhabditis elegans, UniProt G5EF15); experiment: inhibitors of POS-1/mex-3 RNA binding, dose response, biochemical, fluorescence polarization (AID 1964);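 note: purified POS-1 fused to maltose binding protein made in E. coli; potency of compounds blocking POS-1 binding to fluorescent RNA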
T1 sequence (G5EF15 whole entry): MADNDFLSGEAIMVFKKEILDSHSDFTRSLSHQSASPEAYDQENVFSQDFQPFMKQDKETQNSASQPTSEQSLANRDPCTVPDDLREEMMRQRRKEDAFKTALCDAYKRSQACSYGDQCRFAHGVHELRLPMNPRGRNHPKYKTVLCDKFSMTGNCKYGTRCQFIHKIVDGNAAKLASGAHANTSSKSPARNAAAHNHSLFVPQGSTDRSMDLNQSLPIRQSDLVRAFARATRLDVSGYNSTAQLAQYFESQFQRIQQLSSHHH

[4] = Luminescence Cell-Based Dose Response HTS to Identify Activators of Luciferase Translation or Activity in H4 […] Cells. [Related pubchem assays: 1829 (Project Summary), 1814 (Primary HTS)]; format: functional
Protein skinhead-1 = biological target: T2, Protein skinhead-1 (Caenorhabditis elegans, UniProt P34707); format: functional
T2 sequence (P34707 whole entry): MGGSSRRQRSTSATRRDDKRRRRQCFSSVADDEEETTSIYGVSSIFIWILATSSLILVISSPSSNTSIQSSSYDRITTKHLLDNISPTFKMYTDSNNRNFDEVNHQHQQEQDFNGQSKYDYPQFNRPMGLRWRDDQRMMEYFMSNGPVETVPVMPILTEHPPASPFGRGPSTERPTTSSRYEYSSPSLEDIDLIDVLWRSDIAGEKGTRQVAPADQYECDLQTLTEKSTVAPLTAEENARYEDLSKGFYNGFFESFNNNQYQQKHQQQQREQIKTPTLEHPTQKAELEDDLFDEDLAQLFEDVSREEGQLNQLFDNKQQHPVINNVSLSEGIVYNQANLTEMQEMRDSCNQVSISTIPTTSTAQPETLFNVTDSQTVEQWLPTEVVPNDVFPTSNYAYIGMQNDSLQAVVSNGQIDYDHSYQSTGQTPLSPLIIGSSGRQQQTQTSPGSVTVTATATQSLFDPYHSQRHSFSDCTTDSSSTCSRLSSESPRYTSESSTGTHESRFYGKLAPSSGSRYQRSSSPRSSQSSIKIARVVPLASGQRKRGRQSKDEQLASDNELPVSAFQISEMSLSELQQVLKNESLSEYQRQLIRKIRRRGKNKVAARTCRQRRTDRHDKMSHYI

[5] = Luminescence Cell-Based Dose Confirmation HTS to Identify Activators of 5'UTR Stem-Loop Driven Alpha-Synuclein mRNA Translation in H4 Neuroglioblastoma Cells. [Related pubchem assays: 1829 (Project Summary), 1814 (Primary HTS)]; format: functional
H4 = experiment: Luminescence Cell-Based Dose Response HTS to Identify Activators of 5'UTR Stem-Loop Driven Prion Protein mRNA Translation in H4 Neuroglioblastoma Cells. [Related pubchem assays: 1829 (Project Summary), 1814 (Primary HTS)]; format: functional; settings: Homo sapiens
[6] = biological target: T3, Zinc finger protein mex-5 (Caenorhabditis elegans, UniProt Q9XUB2); experiment: MEX-5/TCR-2 RNA interaction inhibitors, dose response, biochemical, C. elegans, fluorescence polarization (AID 1960)
T3 sequence (Q9XUB2 whole entry): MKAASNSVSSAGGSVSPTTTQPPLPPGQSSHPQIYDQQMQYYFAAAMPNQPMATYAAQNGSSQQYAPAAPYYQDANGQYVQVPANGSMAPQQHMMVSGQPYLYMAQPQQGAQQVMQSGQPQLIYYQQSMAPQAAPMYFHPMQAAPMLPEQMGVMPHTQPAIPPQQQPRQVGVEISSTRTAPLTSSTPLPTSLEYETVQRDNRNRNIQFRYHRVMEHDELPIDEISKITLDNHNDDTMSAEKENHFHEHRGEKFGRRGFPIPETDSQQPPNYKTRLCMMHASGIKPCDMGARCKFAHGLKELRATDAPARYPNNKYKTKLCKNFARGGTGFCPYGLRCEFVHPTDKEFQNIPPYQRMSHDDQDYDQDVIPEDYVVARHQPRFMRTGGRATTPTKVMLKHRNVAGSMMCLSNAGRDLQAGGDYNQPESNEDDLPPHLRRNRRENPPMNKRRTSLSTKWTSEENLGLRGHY

[7] = biological target: G-protein coupled receptor 55 (Homo sapiens, UniProt Q9Y2T6); experiment: GPR55 antagonists blocking LPI-driven arrestin recruitment, primary screen, imaging, U2OS, beta-arrestin-GFP, LPI agonist (AID 2013); format: functional;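 note: antagonist potency measured as reduced agonist-driven arrestin aggregation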
Fatty acid synthase [8] = biological target: T4, Fatty acid synthase (Homo sapiens, UniProt P49327); experiment: FAS thioesterase domain inhibitors, dose response, biochemical, endpoint fluorescence intensity, uHTS hits (AID 624327); format: functional;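 note: fluorescence from hydrolysis of an O-methyl fluorescein acyl ester substrate by the enzyme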
Fatty acid synthase [9] = biological target: T4, Fatty acid synthase; experiment: FAS thioesterase domain inhibitors, dose response, biochemical, kinetic fluorescence intensity (AID 624326); format: functional;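 note: rate of fluorescence rise from hydrolysis of a fluorogenic O-methyl fluorescein ester substrate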
Cytochrome P450 2C9 = Cytochrome P450 2C9 (Homo sapiens, UniProt P11712)
Cytochrome P450 2C19 = Cytochrome P450 2C19 (Homo sapiens, UniProt P33261); experiment: Cytochrome panel assay with activity outcomes. Panel member name: p450-cyp2c19 Compounds with AC50 equal or less than 10 uM are considered active; format: functional
Cytochrome P450 1A2 = biological target: T5, Cytochrome P450 1A2 (Homo sapiens, UniProt P05177);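 note: PubChem cytochrome P450 panel assay, CYP1A2 panel member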
T5 sequence (P05177 whole entry): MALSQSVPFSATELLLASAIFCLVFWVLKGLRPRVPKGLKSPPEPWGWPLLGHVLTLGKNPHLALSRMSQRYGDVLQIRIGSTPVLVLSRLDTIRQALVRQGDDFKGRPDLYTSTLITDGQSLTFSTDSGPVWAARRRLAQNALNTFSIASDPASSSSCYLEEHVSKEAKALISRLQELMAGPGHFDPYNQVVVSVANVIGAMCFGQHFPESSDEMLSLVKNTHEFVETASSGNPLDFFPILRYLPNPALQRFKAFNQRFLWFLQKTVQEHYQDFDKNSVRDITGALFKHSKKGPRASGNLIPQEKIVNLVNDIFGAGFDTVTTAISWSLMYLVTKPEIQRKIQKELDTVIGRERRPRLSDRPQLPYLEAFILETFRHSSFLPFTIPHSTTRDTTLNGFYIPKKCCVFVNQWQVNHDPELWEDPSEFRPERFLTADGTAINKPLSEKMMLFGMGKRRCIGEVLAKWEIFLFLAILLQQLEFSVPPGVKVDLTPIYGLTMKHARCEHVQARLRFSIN

[10] = biological target: T6, Carboxy-terminal domain RNA polymerase II polypeptide A small phosphatase 1 (Homo sapiens, UniProt Q9GZU7); experiment: inhibitors of CTDSP1, concentration-response testing, biochemical assay, absorbance-based, actives from ultra-high-throughput screening (AID 540297); format: functional
T6 sequence (Q9GZU7 whole entry): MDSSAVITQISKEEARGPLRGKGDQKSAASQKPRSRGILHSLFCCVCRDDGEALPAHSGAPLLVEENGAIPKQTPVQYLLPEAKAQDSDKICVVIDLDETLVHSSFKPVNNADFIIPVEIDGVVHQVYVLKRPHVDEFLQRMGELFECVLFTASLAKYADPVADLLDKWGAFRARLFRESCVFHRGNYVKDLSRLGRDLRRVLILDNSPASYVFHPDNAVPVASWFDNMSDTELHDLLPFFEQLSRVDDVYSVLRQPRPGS

[11] = biological target: T7, Ubiquitin-conjugating enzyme E2 N (Homo sapiens, UniProt P61088); format: functional;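 note: Dose-response confirmation in a TR-FRET assay detecting UBC13-driven polyubiquitin chain formation, inhibition measured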
T7 sequence (P61088 whole entry): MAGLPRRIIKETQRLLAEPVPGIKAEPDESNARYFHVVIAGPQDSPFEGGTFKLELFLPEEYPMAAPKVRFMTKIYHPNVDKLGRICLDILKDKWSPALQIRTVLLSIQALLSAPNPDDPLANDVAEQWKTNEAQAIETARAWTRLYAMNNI

[12] = cytotoxicity in HEK-293T cells, dose response, cytotoxicity control for TCR NF-kB inhibitor project, luminescence, T-cell screen hits (AID 489026); format: functional, cell-based;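 note: cells exposed to compound about 14 hours before the viability readout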
Cytochrome P450 2D6 = Cytochrome P450 2D6 (Homo sapiens, UniProt P10635);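 note: CYP2D6 member of a cytochrome P450 panel assay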
Cytochrome P450 3A4 = Cytochrome P450 3A4 (Homo sapiens, UniProt P08684);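 note: CYP3A4 tested as one member of a cytochrome P450 panel screen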
[13] = biological target: T8, Polyadenylate-binding protein 1 (Homo sapiens, UniProt P11940); experiment: PABP1 MLLE–PAM2 interaction inhibitors, dose response, miRNA deadenylation inhibitor project, biochemical, fluorescence polarization, Cy5-PAM2 peptide, secondary (AID 602260); format: functional; settings: read-out: IC50_Mean
[14] = biological target: T8, Polyadenylate-binding protein 1; experiment: PABP1 MLLE–PAM2 binding inhibitor potency, dose response, biochemical, fluorescence polarization, FITC-PAM2 peptide (AID 602259); format: functional; settings: read-out: IC50_Mean
P388/ADR = experiment: cells; format: functional; settings: Mus musculus
SN12K1 = experiment: cells; format: functional; settings: Homo sapiens

Chain of G-protein coupled receptor 55 (Q9Y2T6 whole entry, the tested form may be a part): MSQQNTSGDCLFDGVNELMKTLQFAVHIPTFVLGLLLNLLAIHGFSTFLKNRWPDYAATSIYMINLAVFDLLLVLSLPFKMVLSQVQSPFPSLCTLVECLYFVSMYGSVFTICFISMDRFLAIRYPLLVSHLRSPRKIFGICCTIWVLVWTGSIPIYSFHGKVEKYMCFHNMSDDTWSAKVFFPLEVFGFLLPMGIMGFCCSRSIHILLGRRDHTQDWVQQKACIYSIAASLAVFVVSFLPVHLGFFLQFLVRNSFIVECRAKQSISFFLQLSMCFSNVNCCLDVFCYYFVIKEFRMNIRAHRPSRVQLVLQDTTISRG
T4 sequence (P49327 whole entry, the tested form may be a part): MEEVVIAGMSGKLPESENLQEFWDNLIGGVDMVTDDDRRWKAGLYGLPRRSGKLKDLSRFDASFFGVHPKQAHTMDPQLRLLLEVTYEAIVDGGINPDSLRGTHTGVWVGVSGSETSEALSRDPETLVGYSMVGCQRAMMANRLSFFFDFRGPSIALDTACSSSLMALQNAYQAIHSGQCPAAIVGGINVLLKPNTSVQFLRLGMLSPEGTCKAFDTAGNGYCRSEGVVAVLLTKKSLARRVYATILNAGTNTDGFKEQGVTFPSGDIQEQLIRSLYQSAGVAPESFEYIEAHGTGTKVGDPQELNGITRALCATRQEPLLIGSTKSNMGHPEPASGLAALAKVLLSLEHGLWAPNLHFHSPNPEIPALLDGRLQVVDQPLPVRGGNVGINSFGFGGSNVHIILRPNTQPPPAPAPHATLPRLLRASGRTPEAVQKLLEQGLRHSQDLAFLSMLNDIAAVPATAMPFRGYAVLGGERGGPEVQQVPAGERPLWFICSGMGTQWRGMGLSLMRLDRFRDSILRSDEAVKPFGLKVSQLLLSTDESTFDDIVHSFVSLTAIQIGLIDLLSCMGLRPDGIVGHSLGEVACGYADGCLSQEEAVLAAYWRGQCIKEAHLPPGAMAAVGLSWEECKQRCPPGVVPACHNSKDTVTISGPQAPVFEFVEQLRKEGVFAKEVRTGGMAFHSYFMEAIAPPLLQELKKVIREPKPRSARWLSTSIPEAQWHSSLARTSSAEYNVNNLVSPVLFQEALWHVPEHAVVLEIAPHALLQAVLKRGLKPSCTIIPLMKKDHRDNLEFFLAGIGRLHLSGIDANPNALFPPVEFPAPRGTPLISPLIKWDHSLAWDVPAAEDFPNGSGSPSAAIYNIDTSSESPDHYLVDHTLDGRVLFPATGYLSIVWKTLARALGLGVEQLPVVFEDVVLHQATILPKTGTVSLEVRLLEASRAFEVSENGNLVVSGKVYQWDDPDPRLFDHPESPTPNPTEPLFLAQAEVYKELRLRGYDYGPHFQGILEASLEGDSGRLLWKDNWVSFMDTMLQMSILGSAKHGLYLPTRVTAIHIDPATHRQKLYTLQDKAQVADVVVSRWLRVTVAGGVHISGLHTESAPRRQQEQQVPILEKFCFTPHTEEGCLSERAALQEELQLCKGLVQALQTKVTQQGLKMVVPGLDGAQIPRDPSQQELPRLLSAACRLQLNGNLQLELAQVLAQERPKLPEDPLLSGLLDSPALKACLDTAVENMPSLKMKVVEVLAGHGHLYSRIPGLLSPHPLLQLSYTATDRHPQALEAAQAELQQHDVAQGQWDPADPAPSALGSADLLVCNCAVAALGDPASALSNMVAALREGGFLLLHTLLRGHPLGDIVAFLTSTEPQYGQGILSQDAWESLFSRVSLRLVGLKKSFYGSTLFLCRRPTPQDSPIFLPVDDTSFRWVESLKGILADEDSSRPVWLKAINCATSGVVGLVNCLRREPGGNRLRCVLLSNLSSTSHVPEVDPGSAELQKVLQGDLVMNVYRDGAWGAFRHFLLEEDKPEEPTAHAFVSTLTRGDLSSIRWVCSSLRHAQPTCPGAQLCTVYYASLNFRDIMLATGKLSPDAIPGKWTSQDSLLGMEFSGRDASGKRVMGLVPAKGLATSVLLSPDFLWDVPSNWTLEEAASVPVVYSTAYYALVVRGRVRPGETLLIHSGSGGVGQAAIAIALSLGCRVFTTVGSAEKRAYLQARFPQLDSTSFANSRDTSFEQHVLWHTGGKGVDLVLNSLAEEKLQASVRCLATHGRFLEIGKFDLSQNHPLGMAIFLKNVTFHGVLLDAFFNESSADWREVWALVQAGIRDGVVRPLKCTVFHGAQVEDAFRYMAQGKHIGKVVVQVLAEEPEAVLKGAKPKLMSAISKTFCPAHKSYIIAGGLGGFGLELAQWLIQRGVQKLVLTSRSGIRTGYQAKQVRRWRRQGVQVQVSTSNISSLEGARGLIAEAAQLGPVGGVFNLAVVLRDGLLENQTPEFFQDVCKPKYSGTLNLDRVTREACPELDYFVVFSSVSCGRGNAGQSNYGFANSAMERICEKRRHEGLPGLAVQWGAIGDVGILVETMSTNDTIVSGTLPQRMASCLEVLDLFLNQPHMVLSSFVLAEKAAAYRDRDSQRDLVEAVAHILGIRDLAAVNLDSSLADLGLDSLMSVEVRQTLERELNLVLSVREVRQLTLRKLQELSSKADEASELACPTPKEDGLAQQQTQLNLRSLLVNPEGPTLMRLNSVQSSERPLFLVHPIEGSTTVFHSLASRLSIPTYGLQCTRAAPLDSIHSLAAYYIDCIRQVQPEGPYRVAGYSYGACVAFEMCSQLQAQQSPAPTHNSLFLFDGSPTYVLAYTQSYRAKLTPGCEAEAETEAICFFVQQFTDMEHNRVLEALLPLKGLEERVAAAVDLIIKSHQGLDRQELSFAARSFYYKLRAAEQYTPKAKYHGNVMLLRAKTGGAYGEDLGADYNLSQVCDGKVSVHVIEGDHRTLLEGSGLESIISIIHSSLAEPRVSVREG
Chain of Cytochrome P450 2C9 (P11712 whole entry): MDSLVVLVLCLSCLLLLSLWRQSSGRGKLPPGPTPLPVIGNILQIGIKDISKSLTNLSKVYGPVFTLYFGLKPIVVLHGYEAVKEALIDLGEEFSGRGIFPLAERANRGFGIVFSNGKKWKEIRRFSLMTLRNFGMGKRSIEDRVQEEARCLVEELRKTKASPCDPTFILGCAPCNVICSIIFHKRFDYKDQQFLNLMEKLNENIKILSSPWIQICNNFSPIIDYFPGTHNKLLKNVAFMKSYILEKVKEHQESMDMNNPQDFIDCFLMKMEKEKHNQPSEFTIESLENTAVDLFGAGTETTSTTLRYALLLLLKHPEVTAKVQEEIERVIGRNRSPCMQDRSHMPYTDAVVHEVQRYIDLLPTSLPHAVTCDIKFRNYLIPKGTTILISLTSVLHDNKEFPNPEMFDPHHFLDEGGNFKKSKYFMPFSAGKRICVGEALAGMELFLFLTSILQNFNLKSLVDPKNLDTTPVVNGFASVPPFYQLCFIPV
Chain of Cytochrome P450 2C19 (P33261 whole entry): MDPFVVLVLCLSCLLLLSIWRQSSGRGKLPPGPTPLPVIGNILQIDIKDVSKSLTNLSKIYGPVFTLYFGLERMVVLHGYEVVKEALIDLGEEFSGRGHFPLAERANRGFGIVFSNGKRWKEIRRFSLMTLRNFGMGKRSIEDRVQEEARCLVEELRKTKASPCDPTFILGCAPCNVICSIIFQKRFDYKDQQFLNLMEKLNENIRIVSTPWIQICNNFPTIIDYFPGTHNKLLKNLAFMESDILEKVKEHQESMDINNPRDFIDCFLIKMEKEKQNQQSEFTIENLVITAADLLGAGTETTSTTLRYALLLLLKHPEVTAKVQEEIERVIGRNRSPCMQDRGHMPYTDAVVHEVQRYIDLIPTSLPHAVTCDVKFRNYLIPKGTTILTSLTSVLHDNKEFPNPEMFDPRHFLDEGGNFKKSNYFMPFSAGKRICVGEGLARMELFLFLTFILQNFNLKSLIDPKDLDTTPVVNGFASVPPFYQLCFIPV
T8 sequence (P11940 whole entry): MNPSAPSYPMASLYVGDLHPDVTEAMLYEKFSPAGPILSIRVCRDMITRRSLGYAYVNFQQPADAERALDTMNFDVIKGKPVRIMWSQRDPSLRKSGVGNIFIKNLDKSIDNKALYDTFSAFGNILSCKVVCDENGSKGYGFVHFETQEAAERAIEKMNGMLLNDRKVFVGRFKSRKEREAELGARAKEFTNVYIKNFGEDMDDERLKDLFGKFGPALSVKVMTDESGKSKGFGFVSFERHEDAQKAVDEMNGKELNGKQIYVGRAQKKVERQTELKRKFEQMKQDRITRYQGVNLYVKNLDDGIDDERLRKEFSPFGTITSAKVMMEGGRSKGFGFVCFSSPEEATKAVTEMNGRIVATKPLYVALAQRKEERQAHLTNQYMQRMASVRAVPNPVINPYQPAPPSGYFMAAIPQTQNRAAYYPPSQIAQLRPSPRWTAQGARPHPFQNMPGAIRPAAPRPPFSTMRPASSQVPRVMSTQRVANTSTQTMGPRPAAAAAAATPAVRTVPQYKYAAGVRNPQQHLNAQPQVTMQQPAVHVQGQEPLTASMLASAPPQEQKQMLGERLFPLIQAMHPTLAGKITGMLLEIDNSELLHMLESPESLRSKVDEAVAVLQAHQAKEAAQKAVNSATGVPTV
Chain of Cytochrome P450 3A4 (P08684 whole entry): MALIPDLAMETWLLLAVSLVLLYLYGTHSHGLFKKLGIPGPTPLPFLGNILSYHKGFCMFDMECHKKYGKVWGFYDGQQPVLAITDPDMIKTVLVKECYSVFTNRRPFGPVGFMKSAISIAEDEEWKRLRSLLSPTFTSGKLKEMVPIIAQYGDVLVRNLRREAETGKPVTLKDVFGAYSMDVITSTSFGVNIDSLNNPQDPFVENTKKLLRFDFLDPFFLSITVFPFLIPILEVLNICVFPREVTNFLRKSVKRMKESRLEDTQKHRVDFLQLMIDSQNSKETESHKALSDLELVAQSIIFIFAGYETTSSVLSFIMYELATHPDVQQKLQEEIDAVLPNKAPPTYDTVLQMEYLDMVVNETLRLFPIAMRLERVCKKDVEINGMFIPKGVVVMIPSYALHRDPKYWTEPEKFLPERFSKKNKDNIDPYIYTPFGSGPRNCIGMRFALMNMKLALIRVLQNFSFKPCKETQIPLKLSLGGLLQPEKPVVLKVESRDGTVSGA

Cc1ccc(C)c(OCC(=O)N2CCN(Cc3ccc4c(c3)OCO4)CC2)c1
EC50 (cells [1]): > 350 µM (not active) | EC50 (cells [2]): > 350 µM (not active)

Cc1ccc(Cl)cc1N1CCN(CC(O)COCc2ccco2)CC1 (configuration not stated)
EC50 (cells [1]): > 350 µM (not active) | EC50 (cells [2]): > 350 µM (not active)

Cc1cc(CC(C)C)n(-c2nc3ccccc3c(=O)n2OCc2ccccc2)n1
EC50 [3]: > 300 µM (not active) | EC50 [4]: 13.5 µM (active) | IC50 (Protein skinhead-1): > 100 µM (inactive) | EC50 [5]: 6.96 µM (active) | EC50 (H4): > 120 µM (not active) | EC50 [6]: > 300 µM (not active)

CCOC(=O)c1c(N)sc(C(O)(C(F)(F)F)C(F)(F)F)c1-c1ccc(F)cc1
IC50 [7]: 4.92 µM (active)

O=C(c1cccc(S(=O)(=O)N2CCCC2)c1)c1cccc(S(=O)(=O)N2CCCC2)c1
IC50 (Fatty acid synthase [8]): 12.1 µM (active) | IC50 (Fatty acid synthase [9]): 6.54 µM (active)

CN(C)CCNCCN
AC50 (Cytochrome P450 2C9): inconclusive | AC50 (Cytochrome P450 2C19): inconclusive

COc1ccc(S(=O)(=O)N2CCc3ccccc3C2)cc1OC
AC50 (Cytochrome P450 2C9): inconclusive

Nc1cc(=O)nc(SCC(=O)Nc2cccc3ccccc23)n1CCc1ccccc1
AC50 (Cytochrome P450 1A2): 17.8 µM (inconclusive) | AC50 (Cytochrome P450 2C9): inconclusive

CCOc1ccccc1NC(=O)Cn1cnc2c(nnn2-c2cccc(OC)c2)c1=O
IC50 [10]: 10.1 µM (active)

O=C(COc1ccccc1[N+](=O)[O-])Nc1cccc(S(=O)(=O)NC2=NCCCCC2)c1
IC50 [10]: 9 µM (active)

COC(=O)C1=C(C)N(Cc2ccccc2)C(NCc2ccc(OC)cc2)=N[C@H]1c1cccc(F)c1
IC50 [7]: 1.46 µM (active) | IC50 [11]: > 20 µM (inactive)

COc1cccc(C2CC(=O)Nc3cc4c(cc32)CCC4)c1 (configuration not stated)
IC50 [12]: > 80 µM (inactive)

O=S(=O)(Nc1ccc2c(c1)OCCO2)c1cccc2cccnc12
AC50 (Cytochrome P450 1A2): 5.01 µM (inconclusive) | AC50 (Cytochrome P450 2C9): inconclusive | AC50 (Cytochrome P450 2D6): 39.8 µM (inconclusive)

COc1ccc(C(=O)Nc2cccc(-c3ccc4nncn4n3)c2)cc1
EC50 (cells [1]): > 350 µM (not active) | EC50 (cells [2]): > 350 µM (not active)

CCSc1nc(NCCN(C)C)c2c3c(sc2n1)COC(C)(CC)C3 (configuration not stated)
EC50 (cells [1]): > 350 µM (not active) | EC50 (cells [2]): > 350 µM (not active)

CCCC(=O)NNC(=O)CCC(=O)NCc1ccccc1
AC50 (Cytochrome P450 3A4): 0.0562 µM (inconclusive) | AC50 (Cytochrome P450 2C9): inconclusive | AC50 (Cytochrome P450 2C19; read-out: AC50): 39.8 µM (inconclusive)

CC(C)(C)C1=CC(O)(c2ccccc2)C=C(C(C)(C)C)C1=O
IC50 [7]: 18.7 µM (inactive)

Cc1ccc2nc(SCC(=O)Nc3ccc(Br)cc3)nc(=O)n2c1
EC50 (cells [1]): > 350 µM (not active) | EC50 (cells [2]): > 350 µM (not active)

CCc1ccc(NS(=O)(=O)c2cc3c(cc2C)n(C)c(=O)c(=O)n3C)cc1
IC50 [7]: 3.39 µM (active) | IC50 (Fatty acid synthase [8]): 2.42 µM (active) | IC50 (Fatty acid synthase [9]): 2.83 µM (active)

CCOc1ccc(N2C(=O)C3C4C=CC(CC4)C3C2=O)c([N+](=O)[O-])c1 (configuration not stated)
AC50 (Cytochrome P450 1A2): 25.1 µM (inconclusive) | AC50 (Cytochrome P450 3A4): 20 µM (inconclusive) | AC50 (Cytochrome P450 2C9): inconclusive

C=CCN1C(=O)/C(=C2/Sc3ccccc3N2CCCS(=O)(=O)O)SC1=S.c1ccncc1
IC50 [13]: > 66 µM (inactive) | IC50 [10]: 5.11 µM (active) | IC50 [14]: > 66 µM (inactive)

COc1cccc2c1OC[C@@H](CO)[C@H]2N(C)C(=O)Nc1ccc(Cl)cc1Cl
AC50 (Cytochrome P450 2C9): inconclusive

Cc1nc2scc(-c3ccc(Cl)cc3)c2c(=O)o1
IC50 (Fatty acid synthase [8]): 1.32 µM (active) | IC50 (Fatty acid synthase [9]): 2.91 µM (active)

Cc1ccc([N+](=O)[O-])cc1NC(=O)CCCOc1ccccc1
IC50 (Fatty acid synthase [8]): 10.1 µM (active) | IC50 (Fatty acid synthase [9]): 27.3 µM (inactive)

O=[N+]([O-])c1ccc(CN2CC(N3CCC(Cc4ccccc4)CC3)CS2(=O)=O)cc1 (configuration not stated)
IC50 (Fatty acid synthase [8]): 9.92 µM (active) | IC50 (Fatty acid synthase [9]): 6.24 µM (active)

CC(=O)c1ccc(N(C(=O)c2ccco2)C(C(=O)NC2CCCC2)c2ccc(N3CCOCC3)cc2)cc1 (configuration not stated)
IC50 (Fatty acid synthase [8]): 15.5 µM (active) | IC50 (Fatty acid synthase [9]): 12.5 µM (active)

C=C1C(=O)O[C@@H]2OC3(C)CCC4C(C)CCC1C42OO3 (some centres not stated)
GI50 (P388/ADR): 0.294 µM (active) | GI50 (SN12K1): 3.66 µM (inactive)

COc1ccc(/C=C2\SC(=S)N(CCC(=O)Nc3cccc(C(=O)O)c3)C2=O)cc1
IC50 [10]: 6.38 µM (active)
